The values that follow come from patent US10266548B2, “Substituted benzylindazoles for use as Bub1 kinase inhibitors in the treatment of hyperproliferative diseases” (Bayer Intellectual Property GmbH, priority 2011, dated 2019).

Assay [1] relates to HeLa cells. The assay is described as follows: Proliferation assay (HeLa cell line). Type of assay: cell-based. The method, then:
Cultivated tumor cells (cells were ordered from ATCC, except HeLa-MaTu and HeLa-MaTu-ADR, which were ordered from EPO-GmbH, Berlin) were plated at a density of 1000 to 5000 cells/well, depending on the growth rate of the respective cell line, in a 96-well multititer plate in 200 μL of their respective growth medium supplemented 10% fetal calf serum. After 24 hours, the cells of one plate (zero-point plate) were stained with crystal violet (see below), while the medium of the other plates was replaced by fresh culture medium (200 μl), to which the test substances were added in various concentrations (0 μM, as well as in the range of 0.001-10 μM; the final concentration of the solvent dimethyl sulfoxide was 0.5%). The cells were incubated for 4 days in the presence of test substances. Cell proliferation was determined by staining the cells with crystal violet: the cells were fixed by adding 20 μl/measuring point of an 11% glutaric aldehyde solution for 15 minutes at room temperature. After three washing cycles of the fixed cells with water, the plates were dried at room temperature. The cells were stained by adding 100 μl/measuring point of a 0.1% crystal violet solution (pH 3.0). After three washing cycles of the stained cells with water, the plates were dried at room temperature. The dye was dissolved by adding 100 μl/measuring point of a 10% acetic acid solution. […] The change of cell number, in percent, was calculated by normalization of the measured values to the aborbtion values of the zero-point plate (=0%) and the absorbtion of the untreated (0 μm) cells (=100%). The IC50 values were determined by means of a 4 parameter fit using the company's own software.

For assay [2], the target named is catalytic domain of human Bub1 (amino acids 704-1085) (Homo sapiens (Human), UniProt O43683). Description: Bub1 kinase assay (TR-FRET). It counts as biochemical. The conditions noted are these: 10 μM ATP, 1 μM peptide substrate; read-out: Biological Assay 1: Bub1 kinase assay median IC50. The method, then:
To this end, 100-fold concentrated compound solutions (in DMSO) were previously prepared by serial dilution (1:3.4) of 2 mM stocks in a clear low volume 384-well source microtiter plate (Greiner Bio-One, Frickenhausen, Germany), from which 50 nl of compounds were transferred into a black low volume test microtiter plate from the same supplier. […] The resulting mixture (5 μl final volume) was incubated at 22° C. during 60 min., and the reaction was stopped by the addition of 5 μl of an aqueous EDTA-solution (50 mM EDTA, in 100 mM HEPES pH 7.5 and 0.2% (w/v) bovine serum albumin) which also contained the TR-FRET detection reagents (0.2 μM streptavidin-XL665 [Cisbio Bioassays, Codolet, France] and 1 nM anti-phosho-Serine antibody [Merck Millipore, cat. #35-001] and 0.4 nM LANCE EU-W1024 labeled anti-mouse IgG antibody [Perkin-Elmer, product no. AD0077, alternatively a Terbium-cryptate-labeled anti-mouse IgG antibody from Cisbio Bioassays can be used]). The stopped reaction mixture was further incubated 1 h at 22° C. in order to allow the formation of complexes between peptides and detection reagents. Subsequently, the amount of product was evaluated by measurement of the resonance energy transfer from the Eu-chelate-antlbody complex recognizing the Phosphoserlne residue to the streptavidin-XL665 bound to the biotin moiety of the peptide. […] IC50 values were calculated by fitting the normalized inhibition data to a 4-parameter logistic equation (Minimum, Maximum, IC50, Hill; Y=Max+(Min−Max)/(1+(X/IC50)Hill)) using a Bayer-proprietary analysis software.

Setting [3] is: 4 days, crystal violet, read-out: Biological Assay 2: Proliferation assay (HeLa cell line) median IC50.
[4] abbreviates: Homo sapiens, 96 h, 4 days, crystal violet, read-out: Biological Assay 2: Proliferation assay (HeLa cell line) median IC50.
[5] abbreviates: Homo sapiens, 96 h, read-out: Biological Assay 2: Proliferation assay (HeLa cell line) median IC50.

pIC50: −log10 of the molar value. Counter-ions that a name gives are not always drawn. Like-named read-outs stand apart in the source and are kept apart here.

Chain of catalytic domain of human Bub1 (amino acids 704-1085) (O43683 704-1085): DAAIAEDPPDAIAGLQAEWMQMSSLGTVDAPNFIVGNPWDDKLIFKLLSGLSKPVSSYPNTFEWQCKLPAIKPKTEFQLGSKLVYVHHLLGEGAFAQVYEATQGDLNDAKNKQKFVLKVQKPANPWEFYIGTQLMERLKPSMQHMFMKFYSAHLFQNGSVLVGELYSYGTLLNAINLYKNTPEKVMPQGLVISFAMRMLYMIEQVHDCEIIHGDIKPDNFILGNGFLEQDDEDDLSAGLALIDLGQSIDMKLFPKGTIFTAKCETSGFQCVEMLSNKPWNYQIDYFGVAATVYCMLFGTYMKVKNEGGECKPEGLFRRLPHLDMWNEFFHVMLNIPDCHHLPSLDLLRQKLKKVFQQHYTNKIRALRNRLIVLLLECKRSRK

As to `CCOc1cc(F)c(Cn2nc(-c3ncc(OCC[S+](C)[O-])c(Nc4ccncc4)n3)c3ccccc32)c(F)c1` (single isomer, unassigned) [Example 36-1, 2-[1-(4-ethoxy-2,6-difluorobenzyl)-1H-indazol-3-yl]-5-[2-(methylsulfinyl)ethoxy]-N-(pyridin-4-yl)pyrimidin-4-amine], in assay [1] (setting [3]), the pIC50 is 5.48.
For `CCOc1cc(F)c(Cn2nc(-c3ncc(OCC[S+](C)[O-])c(Nc4ccncc4)n3)c3ccccc32)c(F)c1` (single isomer, unassigned) [Example 36-2, 2-[1-(4-ethoxy-2,6-difluorobenzyl)-1H-indazol-3-yl]-5-[2-(methylsulfinyl)ethoxy]-N-(pyridin-4-yl)pyrimidin-4-amine], the pIC50 in assay [1] (setting [3]) is 6.36.
For `CCOc1cc(F)c(Cn2nc(-c3ncc(OCC[S+](C)[O-])c(Nc4ccncc4)n3)c3ccccc32)c(F)c1` (single isomer, unassigned) [Example 36-3, 2-[1-(4-ethoxy-2,6-difluorobenzyl)-1H-indazol-3-yl]-5-[2-(methylsulfinyl)ethoxy]-N-(pyridin-4-yl)pyrimidin-4-amine], the pIC50 in assay [1] (setting [3]) is 6.37.
Turning to `COc1cnc(-c2nn(Cc3c(Cl)ccc(C)c3F)c3ccccc23)nc1Nc1ccncc1` [Example 2-1-1, 2-[1-(6-chloro-2-fluoro-3-methylbenzyl)-1H-indazol-3-yl]-5-methoxy-N-(pyridin-4-yl)pyrimidin-4-amine], the pIC50 is 8.59 in assay [2] and 5.42 in assay [1] (setting [4]).
Regarding `COc1cnc(-c2nn(Cc3c(Cl)ccc(OC)c3F)c3ccccc23)nc1Nc1ccncc1` [Example 2-2-1, 2-[1-(6-chloro-2-fluoro-3-methoxybenzyl)-1H-indazol-3-yl]-5-methoxy-N-(pyridin-4-yl)pyrimidin-4-amine], the pIC50 in assay [2] was 8.59; in assay [1] (setting [4]) it was 5.47.
The matching figures for `COc1cnc(-c2nn(Cc3cc(C)c(C)cc3Cl)c3ccccc23)nc1Nc1ccncc1` [Example 2-3-1, 2-[1-(2-chloro-4,5-dimethylbenzyl)-1H-indazol-3-yl]-5-methoxy-N-(pyridin-4-yl)pyrimidin-4-amine]: 8.36 and 5.52.
The matching figures for `COc1cnc(-c2nn(Cc3ccc(S(F)(F)(F)(F)F)cc3)c3ccccc23)nc1Nc1ccncc1` [Example 2-3-3, 5-methoxy-2-{1-[4-(pentafluoro-λ^6-sulfanyl)benzyl]-1H-indazol-3-yl}-N-(pyridin-4-yl)pyrimidin-4-amine]: 6.44 and 5.07.
`COc1cnc(-c2nn(Cc3ccccc3C#N)c3ccccc23)nc1Nc1ccncc1` [Example 2-5-3, 2-({3-[5-methoxy-4-(pyridin-4-ylamino)pyrimidin-2-yl]-1H-indazol-1-yl}methyl) benzonitrile]: the pIC50 was 7.68 in assay [2] and ≤ 5.00 in assay [1] (setting [5]).
Take `COc1ccc(Cn2nc(-c3ncc(OC)c(Nc4ccncc4)n3)c3ccccc32)c(Cl)c1` [Example 2-6-1, 2-[1-(2-chloro-4-methoxybenzyl)-1H-indazol-3-yl]-5-methoxy-N-(pyridin-4-yl)pyrimidin-4-amine]: the results for the pIC50 in assay [2] and in assay [1] (setting [4]) were 8.33 and 5.42, respectively.
Consider `COc1cnc(-c2nn(Cc3cccc4c3OCCCO4)c3ccccc23)nc1Nc1ccncc1` [Example 2-6-3, 2-[1-(3,4-dihydro-2H-1,5-benzo-dioxepin-6-ylmethyl)-1H-indazol-3-yl]-5-methoxy-N-(pyridin-4-yl)pyrimidin-4-amine], for which the pIC50 in assay [2] is 7.23; in assay [1] (setting [5]) it was ≤ 5.00.
As for `COc1cnc(-c2nn(Cc3c(F)cccc3F)c3ccccc23)nc1Nc1ccncc1` [Example 2-7-1, 2-[1-(2,6-difluorobenzyl)-1H-indazol-3-yl]-5-methoxy-N-(pyridin-4-yl)pyrimidin-4-amine], the pIC50 in assay [2] was 8.32; in assay [1] (setting [5]), ≤ 5.00.
Take `COc1cnc(-c2nn(Cc3cccc(SC(F)(F)F)c3)c3ccccc23)nc1Nc1ccncc1` [Example 2-7-3, 5-methoxy-N-(pyridin-4-yl)-2-(1-{3-[(trifluoromethyl)sulfanyl]benzyl}-1H-indazol-3-yl)pyrimidin-4-amine]: the pIC50 in assay [2] is 6.37; in assay [1] (setting [5]), ≤ 5.00.
Consider `COc1cnc(-c2nn(Cc3ccc(C)c(F)c3F)c3ccccc23)nc1Nc1ccncc1` [Example 2-8-1, 2-[1-(2,3-difluoro-4-methylbenzyl)-1H-indazol-3-yl]-5-methoxy-N-(pyridin-4-yl)pyrimidin-4-amine], for which the pIC50 was 8.17 in assay [2] and ≤ 5.00 in assay [1] (setting [4]).
The matching figures for `COc1cnc(-c2nn(Cc3ccc(-n4cccn4)cc3)c3ccccc23)nc1Nc1ccncc1` [Example 2-8-3, 5-methoxy-2-{1-[4-(1H-pyrazol-1-yl)benzyl]-1H-indazol-3-yl}-N-(pyridin-4-yl)pyrimidin-4-amine]: 7.24 and 5.00.
For `COc1cnc(-c2nn(Cc3ccccc3Cl)c3ccccc23)nc1Nc1ccncc1` [Example 2-10-1, 2-[1-(2-chlorobenzyl)-1H-indazol-3-yl]-5-methoxy-N-(pyridin-4-yl)pyrimidin-4-amine], the pIC50 in assay [2] is 8.17; in assay [1] (setting [5]) it was ≤ 5.00.
Regarding `COc1cnc(-c2nn(Cc3ccc(F)c(OC)c3Cl)c3ccccc23)nc1Nc1ccncc1` [Example 2-13-1, 2-[1-(2-chloro-4-fluoro-3-methoxybenzyl)-1H-indazol-3-yl]-5-methoxy-N-(pyridin-4-yl)pyrimidin-4-amine], the figures for the pIC50 in assay [2] and in assay [1] (setting [4]) were 8.10 and 5.42, respectively.
`CCOc1cc(F)c(Cn2nc(-c3ncc(OCCN4CCOCC4)c(Nc4ccncc4)n3)c3ccccc32)c(F)c1` [Example 4-12, 2-[1-(4-ethoxy-2,6-difluorobenzyl)-1H-indazol-3-yl]-5-[2-(morpholin-4-yl)ethoxy]-N-(pyridin-4-yl)pyrimidin-4-amine]: the pIC50 in assay [1] (setting [4]) was 5.05.
Turning to `CCOc1cc(F)c(Cn2nc(-c3ncc(OCC(=O)N4CC(F)(F)C4)c(Nc4ccncc4)n3)c3ccccc32)c(F)c1` [Example 4-15, 1-(3,3-difluoroazetidin-1-yl)-2-({2-[1-(4-ethoxy-2,6-difluorobenzyl)-1H-indazol-3-yl]-4-(pyridin-4-ylamino)pyrimidin-5-yl}oxy)ethanone], in assay [1] (setting [4]), the pIC50 was 5.41.
The same measure, in the same setting: then `CCOc1cc(F)c(Cn2nc(-c3ncc(OCCSC)c(Nc4ccncc4)n3)c3ccccc32)c(F)c1` [Example 4-16, 2-[1-(4-ethoxy-2,6-difluorobenzyl)-1H-indazol-3-yl]-5-[2-(methylsulfanyl)ethoxy]-N-(pyridin-4-yl)pyrimidin-4-amine], with 5.36.
Turning to `CCOc1cc(F)c(Cn2nc(-c3ncc(OCCOCCO)c(Nc4ccncc4)n3)c3ccccc32)c(F)c1` [Example 4-17, 2-[2-({2-[1-(4-ethoxy-2,6-difluorobenzyl)-1H-indazol-3-yl]-4-(pyridin-4-ylamino)pyrimidin-5-yl}oxy)ethoxy] ethanol], the pIC50 in assay [1] (setting [5]) is 5.32.
Regarding `OC[C@@H](O)COc1cnc(-c2nn(Cc3ccccc3F)c3ccccc23)nc1Nc1ccncc1` [Example 15-6, (2R)-3-({2-[1-(2-fluorobenzyl)-1H-indazol-3-yl]-4-(pyridin-4-ylamino)pyrimidin-5-yl}oxy)propane-1,2-diol hydrochloride (1:1)], in assay [1] (read-out: Biological Assay 2: Proliferation assay (HeLa cell line) median IC50, 4 days, crystal violet), the pIC50 is ≤ 5.00.
For the compound `CCOc1cc(F)c(Cn2nc(-c3ncc(OCCN)c(Nc4ccncc4)n3)c3ccccc32)c(F)c1` [Example 38-1, 5-(2-aminoethoxy)-2-[1-(4-ethoxy-2,6-difluorobenzyl)-1H-indazol-3-yl]-N-(pyridin-4-yl)pyrimidin-4-amine], the pIC50 in assay [1] (setting [5]) is 5.85.
Consider `COc1cnc(-c2nn(Cc3c(Cl)ccc(N)c3Cl)c3ccccc23)nc1Nc1ccncc1` [Example 40-1, 2-[1-(3-amino-2,6-dichlorobenzyl)-1H-indazol-3-yl]-5-methoxy-N-(pyridin-4-yl)pyrimidin-4-amine], for which the pIC50 in assay [2] is 7.41.
